Data from patent US20250346569A1, “NEW DERIVATIVES FOR TREATING TRPM3 MEDIATED DISORDERS” (Katholieke Universiteit Leuven, priority 2022, published 2025).

Target: T1, mouse TRPM3α2 (mTRPM3) ion channel (Mus musculus, UniProt J9SQF3)
T1 construct: expressed in transfected cells; host or cells: flip-in HEK293
Assay: Monitoring the TRPM3 ion channel driven Ca2+ uptake (Fluo-4 AM assay)
Type: cell-based
Settings: TRPM3 overexpressing flip-in HEK293 cells, channel stimulated with Pregnenolone sulfate (PS) 50 μM
Procedure: Monitoring the TRPM3 ion channel driven Ca^2+ uptake.
In order to monitor the inhibition of the mouse TRPM3α2 (mTRPM3) ion channel by the compounds of the invention, a cellular system making use of an mTRPM3alpha2 or hTRPM3 overexpressing cell line (flip-in HEK293) was used. The TRPM3 channel was stimulated/opened with Pregnenolone sulfate (PS) (50 μM) which results in Ca^2+ influx.
For mTRPM3, the intracellular Ca^2+ was measured with a Calcium responsive dye, Fluor-4 AM ester (Invitrogen). Cells were cultured until a confluence of 80-90%, washed with Versene (Invitrogen) and detached from the surface by a short incubation with 0.05% Trypsin (Invitrogen). The trypsination process was stopped by the addition of complete cell culture medium (DMEM, glutamax,10% FCS,NEAA,Pen-Strep). Cells were collected and resuspended in Krebs buffer without Calcium at RT.
Prior the cell seeding (±2000 cells/well into a black, 384 well plate (Greiner)) the diluted compound was added in the assay plate, together with the PS dissolved in Krebs buffer containing Calcium. […] Directly after cell addition the plates were read on an Envision fluorescence reader (Perkin Elmer) by an Excitation of 485 nm and emission at 535 nm.
Channel inhibition was calculated compared to a non-PS stimulated control versus a condition stimulated with PS (50 μM) with vehicle. The ability of the compounds of the invention to inhibit this activity was determined as: Percentage inhibition=[1−((RFU determined for sample with test compound present−RFU determined for sample with positive control inhibitor) divided by (RFU determined in the presence of vehicle−RFU determined for sample with positive control inhibitor))]*100.
The activities of the Example compounds tested are depicted in the table below. The activity ranges A, B and C refer to IC50 values in the Fluo-4 AM assay as follows: “A”: IC50<1 μM; “B”: 1 μM≤IC50≤20 μM and “C”: IC50>20 μM

T1 sequence (J9SQF3 1-1709 isoform J9SQF3-12): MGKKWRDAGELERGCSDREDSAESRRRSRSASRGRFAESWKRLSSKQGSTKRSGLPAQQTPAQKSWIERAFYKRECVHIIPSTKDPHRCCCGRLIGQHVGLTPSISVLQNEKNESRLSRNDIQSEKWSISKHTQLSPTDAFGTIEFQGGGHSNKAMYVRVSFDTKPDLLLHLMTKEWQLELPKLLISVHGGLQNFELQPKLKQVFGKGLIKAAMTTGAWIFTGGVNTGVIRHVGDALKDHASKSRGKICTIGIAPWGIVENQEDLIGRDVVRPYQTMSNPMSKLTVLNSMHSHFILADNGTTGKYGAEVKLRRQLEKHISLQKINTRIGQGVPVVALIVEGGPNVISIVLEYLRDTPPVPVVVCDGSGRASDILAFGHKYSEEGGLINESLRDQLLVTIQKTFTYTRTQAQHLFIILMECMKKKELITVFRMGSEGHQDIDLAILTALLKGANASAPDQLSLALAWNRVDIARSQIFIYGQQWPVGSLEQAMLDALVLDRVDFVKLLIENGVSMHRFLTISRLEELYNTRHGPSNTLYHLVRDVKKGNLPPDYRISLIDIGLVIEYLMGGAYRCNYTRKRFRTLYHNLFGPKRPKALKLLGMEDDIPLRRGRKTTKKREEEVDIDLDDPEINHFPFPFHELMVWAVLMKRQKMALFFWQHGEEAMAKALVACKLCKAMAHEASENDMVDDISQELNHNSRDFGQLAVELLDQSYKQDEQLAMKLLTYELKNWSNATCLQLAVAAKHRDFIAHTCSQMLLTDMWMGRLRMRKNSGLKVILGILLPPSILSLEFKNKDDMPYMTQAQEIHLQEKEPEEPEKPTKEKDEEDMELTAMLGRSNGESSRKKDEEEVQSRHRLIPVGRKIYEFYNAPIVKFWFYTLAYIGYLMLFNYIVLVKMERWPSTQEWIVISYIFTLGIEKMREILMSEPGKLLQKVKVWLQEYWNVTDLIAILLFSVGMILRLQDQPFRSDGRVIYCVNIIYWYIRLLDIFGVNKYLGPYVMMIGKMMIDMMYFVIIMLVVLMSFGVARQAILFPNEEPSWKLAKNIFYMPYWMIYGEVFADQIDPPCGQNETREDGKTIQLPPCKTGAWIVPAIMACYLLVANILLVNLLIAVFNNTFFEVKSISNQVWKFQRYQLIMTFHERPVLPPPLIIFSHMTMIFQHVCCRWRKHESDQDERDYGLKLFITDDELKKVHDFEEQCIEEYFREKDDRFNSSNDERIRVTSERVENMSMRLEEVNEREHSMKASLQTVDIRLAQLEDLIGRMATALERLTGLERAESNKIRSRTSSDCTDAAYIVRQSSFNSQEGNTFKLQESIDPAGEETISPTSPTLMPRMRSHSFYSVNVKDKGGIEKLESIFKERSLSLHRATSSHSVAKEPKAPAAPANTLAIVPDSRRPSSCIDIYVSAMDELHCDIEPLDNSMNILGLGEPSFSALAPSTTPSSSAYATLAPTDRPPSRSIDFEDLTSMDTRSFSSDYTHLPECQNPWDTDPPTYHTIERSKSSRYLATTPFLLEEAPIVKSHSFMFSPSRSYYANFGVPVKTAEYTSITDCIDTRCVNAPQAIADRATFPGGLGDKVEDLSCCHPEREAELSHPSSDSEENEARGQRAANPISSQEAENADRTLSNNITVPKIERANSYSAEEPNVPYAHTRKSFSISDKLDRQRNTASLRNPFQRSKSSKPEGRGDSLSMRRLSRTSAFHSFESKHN

| SMILES | IC50 [nM] |
| --- | --- |
| O=C(NCCN1CCOC1=O)c1c(C(F)F)sc2ccc(OCc3ccccc3)cc12 [Cpd 149, 5-(benzyloxy)-2-(difluoromethyl)-N-[2-(2-oxo-1,3-oxazolidin-3-yl)ethyl]-1-benzothiophene-3-carboxamide] | > 20000 |
| Cc1ncsc1COc1ccc2sc(C)c(C(=O)NCC3CCC(=O)N3)c2c1 (centres unmarked) [Cpd 046, 2-methyl-5-[(4-methyl-1,3-thiazol-5-yl)methoxy]-N-[(5-oxopyrrolidin-2-yl)methyl]-1-benzothiophene-3-carboxamide] | < 1000 |
| Cn1ccc(NC(=O)c2c(C(F)F)sc3ccc(OCc4ccccc4)cc23)n1 [Cpd 131, 5-(benzyloxy)-2-(difluoromethyl)-N-(1-methyl-1H-pyrazol-3-yl)-1-benzothiophene-3-carboxamide] | 1000 to 20000 |
| Cc1sc2ccc(OCc3ccccc3)cc2c1C(=O)NC1CC(F)(F)C1 [Cpd 089, 5-(benzyloxy)-N-(3,3-difluorocyclobutyl)-2-methyl-1-benzothiophene-3-carboxamide] | > 20000 |
| Cc1sc2ccc(OCc3cccnc3C(F)(F)F)cc2c1C(=O)NC1(CO)CCOCC1 [Cpd 083, N-[4-(hydroxymethyl)oxan-4-yl]-2-methyl-5-{[2-(trifluoromethyl)pyridin-3-yl]methoxy}-1-benzothiophene-3-carboxamide] | 1000 to 20000 |
| Cc1ncsc1COc1ccc2sc(C)c(C(=O)N[C@@H](CO)C(N)=O)c2c1 [Cpd 027, (2S)-3-hydroxy-2-({2-methyl-5-[(4-methyl-1,3-thiazol-5-yl)methoxy]-1-benzothiophen-3-yl}formamido)propanamide] | < 1000 |
| CNC(=O)C1(NC(=O)c2c(C)sc3ccc(OCc4cnc(C)s4)cc23)CCOC1 (single isomer, unassigned) [Cpd 133 - En1, N-methyl-3-{2-methyl-5-[(2-methyl-1,3-thiazol-5-yl)methoxy]-1-benzothiophene-3-amido}oxolane-3-carboxamide] | < 1000 |
| COc1ncccc1COc1ccc2sc(C)c(C(=O)NC3(CO)CCC3)c2c1 [Cpd 143, N-[1-(hydroxymethyl)cyclobutyl]-5-[(2-methoxypyridin-3-yl)methoxy]-2-methyl-1-benzothiophene-3-carboxamide] | < 1000 |
| Cc1sc2ccc(OCc3cccnc3O)cc2c1C(=O)NC1(CO)CCOCC1 [Cpd 084, N-[4-(hydroxymethyl)oxan-4-yl]-5-[(2-hydroxypyridin-3-yl)methoxy]-2-methyl-1-benzothiophene-3-carboxamide] | < 1000 |
| CNC(=O)C(C)(CO)NC(=O)c1c(C)sc2ccc(OCc3cnc(C)s3)cc12 (single isomer, unassigned) [Cpd 132 - En2, 3-hydroxy-N,2-dimethyl-2-({2-methyl-5-[(2-methyl-1,3-thiazol-5-yl)methoxy]-1-benzothiophen-3-yl}formamido)propanamide] | < 1000 |
| Cc1ncsc1COc1ccc2sc(C)c(C(=O)N[C@@H](C)C(N)=O)c2c1 [Cpd 012, (2S)-2-({2-methyl-5-[(4-methyl-1,3-thiazol-5-yl)methoxy]-1-benzothiophen-3-yl}formamido)propanamide] | < 1000 |
| Cc1sc2ccc(OCc3cccnc3C(F)(F)F)cc2c1C(=O)NCC(C)(C)N1CCOCC1 [Cpd 099, 2-methyl-N-[2-methyl-2-(morpholin-4-yl)propyl]-5-{[2-(trifluoromethyl)pyridin-3-yl]methoxy}-1-benzothiophene-3-carboxamide] | 1000 to 20000 |
| Cc1sc2ccc(OCc3ccccn3)cc2c1C(=O)NC(C)(C)C(N)=O [Cpd 064, 2-methyl-2-({2-methyl-5-[(pyridin-2-yl)methoxy]-1-benzothiophen-3-yl}formamido)propanamide] | < 1000 |
| Cc1sc2ccc(OCc3ccccc3F)cc2c1C(=O)NC1CCNCC1(F)F (single isomer, unassigned) [Cpd 095 - En1, N-(3,3-difluoropiperidin-4-yl)-5-[(2-fluorophenyl)methoxy]-2-methyl-1-benzothiophene-3-carboxamide] | 1000 to 20000 |
| Cc1sc2ccc(OCc3ccccc3)cc2c1C(=O)NCc1cccc(O)n1 [Cpd 104, 5-(benzyloxy)-N-[(6-hydroxypyridin-2-yl)methyl]-2-methyl-1-benzothiophene-3-carboxamide] | > 20000 |
| Cc1sc2ccc(OCc3cccnc3O)cc2c1C(=O)N[C@@H](C)C(N)=O [Cpd 010, (2S)-2-({5-[(2-hydroxypyridin-3-yl)methoxy]-2-methyl-1-benzothiophen-3-yl}formamido)propanamide] | < 1000 |

| SMILES | IC50 [nM] |
| --- | --- |
| COc1ncccc1COc1ccc2sc(C)c(C(=O)NC3(CO)CCOCC3)c2c1 [Cpd 144, N-[4-(hydroxymethyl)oxan-4-yl]-5-[(2-methoxypyridin-3-yl)methoxy]-2-methyl-1-benzothiophene-3-carboxamide] | 1000 to 20000 |
| Cc1sc2ccc(OCc3cccnc3C(F)(F)F)cc2c1C(=O)NCCN(C)C [Cpd 117, N-[2-(dimethylamino)ethyl]-2-methyl-5-{[2-(trifluoromethyl)pyridin-3-yl]methoxy}-1-benzothiophene-3-carboxamide] | < 1000 |
| Cc1ncsc1COc1ccc2sc(C)c(C(=O)NC3(CO)COC3)c2c1 [Cpd 037, N-[3-(hydroxymethyl)oxetan-3-yl]-2-methyl-5-[(4-methyl-1,3-thiazol-5-yl)methoxy]-1-benzothiophene-3-carboxamide] | < 1000 |
| Cc1ncc(COc2ccc3sc(C)c(C(=O)N[C@H](CO)C(N)=O)c3c2)s1 [Cpd 017, (2R)-3-hydroxy-2-({2-methyl-5-[(2-methyl-1,3-thiazol-5-yl)methoxy]-1-benzothiophen-3-yl}formamido)propanamide] | < 1000 |
| Cc1ncsc1COc1ccc2sc(C)c(C(=O)NCC(C)(C)N3CCOCC3)c2c1 [Cpd 044, 2-methyl-5-[(4-methyl-1,3-thiazol-5-yl)methoxy]-N-[2-methyl-2-(morpholin-4-yl)propyl]-1-benzothiophene-3-carboxamide] | < 1000 |
| Cc1ncsc1COc1ccc2sc(C)c(C(=O)Nc3ccn(C)n3)c2c1 [Cpd 040, 2-methyl-5-[(4-methyl-1,3-thiazol-5-yl)methoxy]-N-(1-methyl-1H-pyrazol-3-yl)-1-benzothiophene-3-carboxamide] | < 1000 |
| Cc1sc2ccc(OCc3cccnc3C(F)(F)F)cc2c1C(=O)N[C@@H](C)C(N)=O [Cpd 009, (2S)-2-[(2-methyl-5-{[2-(trifluoromethyl)pyridin-3-yl]methoxy}-1-benzothiophen-3-yl)formamido]propanamide] | < 1000 |
| Cc1ncc(COc2ccc3sc(C)c(C(=O)NC4(CO)CCC4)c3c2)s1 [Cpd 023, N-[1-(hydroxymethyl)cyclobutyl]-2-methyl-5-[(2-methyl-1,3-thiazol-5-yl)methoxy]-1-benzothiophene-3-carboxamide] | < 1000 |
| Cc1sc2ccc(OCc3cccnc3C(F)(F)F)cc2c1C(=O)O [Cpd 109, 2-methyl-5-{[2-(trifluoromethyl)pyridin-3-yl]methoxy}-1-benzothiophene-3-carboxylic acid] | < 1000 |
| Cc1sc2ccc(OCc3ccccc3)cc2c1C(=O)NC1(CO)CCOCC1 [Cpd 080, 5-(benzyloxy)-N-[4-(hydroxymethyl)oxan-4-yl]-2-methyl-1-benzothiophene-3-carboxamide] | 1000 to 20000 |
| Cc1sc2ccc(OCc3ccccc3)cc2c1C(=O)NC(C)(C)C(N)=O [Cpd 062, 2-{[5-(benzyloxy)-2-methyl-1-benzothiophen-3-yl]formamido}-2-methylpropanamide] | < 1000 |
| Cc1ncc(COc2ccc3sc(C)c(C(=O)N[C@@H](C)C(N)=O)c3c2)s1 [Cpd 011, (2S)-2-({2-methyl-5-[(2-methyl-1,3-thiazol-5-yl)methoxy]-1-benzothiophen-3-yl}formamido)propanamide] | < 1000 |
| Cc1sc2ccc(OCc3ccccn3)cc2c1C(=O)NC1(C(N)=O)CCOCC1 [Cpd 071, 4-{2-methyl-5-[(pyridin-2-yl)methoxy]-1-benzothiophene-3-amido}oxane-4-carboxamide] | < 1000 |
| CN1CC(NC(=O)c2c(C(F)F)sc3ccc(OCc4ccccc4)cc23)C(F)(F)C1 (centres unmarked) [Cpd 119, 5-(benzyloxy)-N-(4,4-difluoro-1-methylpyrrolidin-3-yl)-2-(difluoromethyl)-1-benzothiophene-3-carboxamide] | 1000 to 20000 |
| Cc1ncsc1COc1ccc2sc(C)c(C(=O)NCC(C)(C)O)c2c1 [Cpd 045, N-(2-hydroxy-2-methylpropyl)-2-methyl-5-[(4-methyl-1,3-thiazol-5-yl)methoxy]-1-benzothiophene-3-carboxamide] | < 1000 |
| Cc1sc2ccc(OCc3ccccc3F)cc2c1C(=O)N[C@H]1CCN(CCO)C1=O [Cpd 059, 5-[(2-fluorophenyl)methoxy]-N-[(3S)-1-(2-hydroxyethyl)-2-oxopyrrolidin-3-yl]-2-methyl-1-benzothiophene-3-carboxamide] | < 1000 |
